As a reminder, the EC50 is the midpoint of the concentration-response curve.

Like-named read-outs stand apart in the source and are kept apart here.

One data set relates to parental HEK cells. Put plainly: HEK parental Agonist Counterscreen Assay (non-transfected cells). In kind it is cell-based. The following applies: for Averaged Max % Response (±St. Dev.): activity relative to known control. From the text:
The high control for the agonist counterscreen was Forskolin not acetylcholine.

Another data set deals with T1, GPR139 (Homo sapiens, UniProt Q6DWJ6).
T1 sequence (Q6DWJ6 1-353): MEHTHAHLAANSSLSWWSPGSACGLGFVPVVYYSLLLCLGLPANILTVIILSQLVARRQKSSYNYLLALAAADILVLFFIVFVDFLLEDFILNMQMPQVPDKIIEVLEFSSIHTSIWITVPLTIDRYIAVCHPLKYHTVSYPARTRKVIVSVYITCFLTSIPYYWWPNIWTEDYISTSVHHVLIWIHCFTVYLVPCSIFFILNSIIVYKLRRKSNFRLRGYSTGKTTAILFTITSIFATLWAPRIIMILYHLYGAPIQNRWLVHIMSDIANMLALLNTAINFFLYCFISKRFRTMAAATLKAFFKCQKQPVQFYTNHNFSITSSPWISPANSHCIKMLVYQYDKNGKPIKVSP
Put plainly: GPR139 Agonist titration / agonist counterscreen assay (calcium detection, HEK-GPR139 cells). Type of data set: cell-based. The arrangement: expressed in transfected cells; host or cells: HEK Aequorin cells, Maxcyte transient transfection. The following applies: GPR139 Agonist Activity; for Averaged Max % Response (±St. Dev.): activity relative to known control; for EC50: read-out: EC50. The method, then:
GPR activity was assessed using a calcium detection assay. […] Negative control samples were treated with DMSO. […] Intracellular calcium was measured using Calcium 5.
A general note: A counterscreen serves to expose hits that act by an unwanted route or on another target.

[1] abbreviates: Homo sapiens, HEK293, HEK Agonist Activity section of Table 4 (parental HEK counterscreen).
Setting [2] is: values printed in E-notation without unit.
The mark [3] stands for this setting: Homo sapiens, HEK293, HEK Agonist Activity, parental non-transfected HEK cells.
Setting [4] is: HEK Agonist Activity section of Table 4 (parental HEK counterscreen).

Take `COc1ccc(C(=O)NNC(=O)COc2ccc(Cl)cc2Cl)cc1OC` [SR-01000357814]: the entries for the “Lipophilic Efficiency (logD)” value in the data set on parental HEK cells (HEK Agonist Activity section) and at GPR139 (based on logD) were 2.25 and 4.04, respectively. The “Lipophilic Efficiency (logP)” value is on record as 2.21 with parental HEK cells (HEK Agonist Activity section) and 3.99 at GPR139 (based on logP). Further, the “Averaged Max % Response (±St. Dev.)” value is 7.60 ± 11.41% with parental HEK cells (HEK Agonist Activity section) and 103.91 ± 10.30% on GPR139. The EC50 was above 14100 nM in the data set with parental HEK cells (setting [1]) and 231 nM on GPR139 (setting [2]). Moreover, on GPR139 (fitted dose-response curve), the “Hill Slope” value was determined as 0.77. Besides, at GPR139 (ligand efficiency), the “Efficiency Ligand” value is 0.36.
Consider `COc1ccc(NC(=O)NCCOc2cccc3ccccc23)cc1OC` [SR-01000223498], for which the “Lipophilic Efficiency (logD)” value is on record as 1.43 with parental HEK cells (HEK Agonist Activity) and 4.05 at GPR139 (based on logD). Also, the results for the “Lipophilic Efficiency (logP)” value in the data set with parental HEK cells (HEK Agonist Activity) and on GPR139 (based on logP) were 1.43 and 4.05, respectively. For the same compound, the “Averaged Max % Response (±St. Dev.)” value in the data set with parental HEK cells (HEK Agonist Activity) turned out to be 15.10 ± 2.28%; at GPR139 it was 115.59 ± 14.29%. For the same compound, the results for the EC50 with parental HEK cells (setting [3]) and on GPR139 (setting [2]) were above 14100 nM and 33.9 nM, respectively. Moreover, the “Hill Slope” value at GPR139 (fitted dose-response curve) is 0.81. The “Efficiency Ligand” value at GPR139 (ligand efficiency) came out at 0.39.
As to `CN(C)c1ccc(NC(=O)Cn2cc(C=O)c3ccccc32)cc1` [SR-01000146281], in the data set on parental HEK cells (HEK Agonist Activity section), the “Lipophilic Efficiency (logD)” value turned out to be 1.82, the “Lipophilic Efficiency (logP)” value is listed as 1.82 and the “Averaged Max % Response (±St. Dev.)” value was determined as 8.26 ± 4.28%. Also, in the data set on parental HEK cells (setting [4]), the EC50 is above 14100 nM. In addition, on GPR139, the “Efficiency Ligand” value worked out at 0.37, the “Hill Slope” value came out at 1.64, the “Lipophilic Efficiency (logD)” value is reported as 3.32 and the “Lipophilic Efficiency (logP)” value is on record as 3.32. Moreover, the “Averaged Max % Response (±St. Dev.)” value on GPR139 is given as 89.20 ± 13.55%. Further, on GPR139 (HEK-GPR139 cells), the EC50 was 449 nM.
Turning to `COc1ccccc1OCC(=O)NCCc1ccc2c(c1)CCCN2C` [SR-01000911654], the “Lipophilic Efficiency (logD)” value was determined as 1.69 with parental HEK cells (HEK Agonist Activity) and 4.95 at GPR139 (based on logD). Besides, the “Lipophilic Efficiency (logP)” value in the data set on parental HEK cells (HEK Agonist Activity) is 1.69; on GPR139 (based on logP), 4.94. For the same compound, the entries for the “Averaged Max % Response (±St. Dev.)” value in the data set with parental HEK cells (HEK Agonist Activity) and on GPR139 were −5.46 ± 4.05% and 102.69 ± 7.41%, respectively. Further, the EC50 with parental HEK cells (setting [3]) was above 14100 nM; at GPR139 (setting [2]) it was 7.9 nM. In addition, the “Hill Slope” value at GPR139 (fitted dose-response curve) was 0.31. Besides, the “Efficiency Ligand” value at GPR139 (ligand efficiency) was determined as 0.44.
On to `C=C(Nc1ccc(-c2cn[nH]c2)cc1)N(C)Cc1cccc(C(=O)CC)c1` [SR-00000007008], for which the entries for the “Lipophilic Efficiency (logD)” value with parental HEK cells (HEK Agonist Activity section) and on GPR139 (based on logD) were 1.85 and 3.98, respectively. Further, the “Lipophilic Efficiency (logP)” value in the data set with parental HEK cells (HEK Agonist Activity section) was 1.85; on GPR139 (based on logP), 3.98. Also, the “Averaged Max % Response (±St. Dev.)” value is recorded as −8.12 ± 2.24% with parental HEK cells (HEK Agonist Activity section) and 75.98 ± 6.44% at GPR139. Also, the EC50 in the data set with parental HEK cells (setting [1]) was above 14100 nM. Also, on GPR139 (fitted dose-response curve), the “Hill Slope” value came to 0.79. In addition, at GPR139 (ligand efficiency), the “Efficiency Ligand” value came out at 0.36.
As to `COc1ccc(SCC(=O)NNC(=S)Nc2ccccc2)cc1` [SR-01000526835], in the data set on parental HEK cells (HEK Agonist Activity section), the “Lipophilic Efficiency (logD)” value is 1.85, the “Lipophilic Efficiency (logP)” value stood at 1.85 and the “Averaged Max % Response (±St. Dev.)” value was 7.64 ± 8.84%. Further, the EC50 in the data set with parental HEK cells (setting [1]) is above 13900 nM. At GPR139, the “Efficiency Ligand” value is 0.37, the “Hill Slope” value is recorded as 1.15, the “Lipophilic Efficiency (logD)” value is on record as 3.01 and the “Lipophilic Efficiency (logP)” value is recorded as 3.01. Besides, the “Averaged Max % Response (±St. Dev.)” value on GPR139 was 81.65 ± 6.38%. Besides, on GPR139 (HEK-GPR139 cells), the EC50 worked out at 955 nM.
In the case of `CCOC(=O)c1ccc(CSc2nnc(N)s2)cc1` [SR-01000273754], the “Lipophilic Efficiency (logD)” value was 1.95 in the data set on parental HEK cells (HEK Agonist Activity section) and 4.03 at GPR139 (based on logD). The “Lipophilic Efficiency (logP)” value in the data set with parental HEK cells (HEK Agonist Activity section) was 1.95; on GPR139 (based on logP), 4.03. The EC50 in the data set with parental HEK cells (setting [4]) was above 14100 nM; at GPR139 (setting [2]) it was 118 nM. In addition, the “Averaged Max % Response (±St. Dev.)” value is listed as 2.38 ± 11.60% in the data set with parental HEK cells (HEK Agonist Activity section) and 86.25 ± 6.17% at GPR139. In addition, the “Hill Slope” value on GPR139 (fitted dose-response curve) worked out at 0.89. The “Efficiency Ligand” value on GPR139 (ligand efficiency) was determined as 0.51.

The values above are taken from patent US20250099420A1, “SMALL MOLECULE MODULATORS OF GPR139 COMPLEX” (University of Florida Research Foundation, Incorporated, priority 2022, published 2025).
